Results as given in patent publication US7049314B2, “Cyclopentyl indole derivatives” (Bristol-Myers Squibb Company, priority 2002, dated 2006).

How the values were obtained:
[1] = molecular target: T1, human norepinephrine transporters (Homo sapiens, UniProt P23975); assay: Norepinephrine Transporter Binding Assay ([3H]-nisoxetine displacement, hNET cell membranes); settings: 2.7 nM [3H]-nisoxetine, 1 hr at 4° C., read-out: NE Reuptake (binding Ki)
T1 construct: host or cells: MDCK cells (also 'HEK-hNET cells'), membrane homogenates
Protocol: MDCK cells that stably express human norepinephrine transporters (HEK-hNET cells) were supplied by Receptor Biology, Inc. Pellets were resuspended by homogenization in buffer consisting of 50 mM Tris (pH 7.4 at 25° C.), 120 mM NaCl and 5 mM KCl. Membrane homogenates (200 μl/well, 8 ug protein) were incubated with 2.7 nM [^3H]-nisoxetine (specific activity=80 Ci/mMol) and increasing concentrations of test compounds for 1 hr at 4° C. in a total volume of 250 μl. The assay buffer consisted of 50 mM Tris (pH 7.4 at 25° C.), 120 mM NaCl and 5 mM KCl (pH 7.4 with conc. HCl). Plates were incubated for 1 hr at 4° C., then filtered through 0.5% PEI treated Whatman GF/B filters using a Brandel cell harvester. Filters were washed three times with 3 mL of ice-cold tris wash buffer. Non-specific binding was defined with 10 μM desipramine. Amount of radioligand bound in the presence and absence of competitor was analyzed by plotting (−)log drug concentration versus the amount of radioligand specifically bound. The midpoint of the displacement curve (IC50, nM), signifies the potency. Ki values were calculated using the method of Cheng and Prusoff (1973).

[2] = molecular target: T2, human serotonin transporters (Homo sapiens, UniProt P31645); assay: Serotonin Transporter Binding Assay ([3H]-citalopram displacement, HEK-hSERT cell membranes); settings: HEK-hSERT membranes, 1 nM [3H]-citalopram, 1 hr at 25° C.; read-out: SERT (binding Ki)
T2 construct: expressed in transfected cells
Protocol: HEK-293 cells that stably express human serotonin transporters (HEK-hSERT cells) were grown at 37° C. in 5% CO2 as a monolayer in medium consisting of EMEM supplemented with 10% fetal bovine serum and G418 sulfate (500 μg/mL). To prepare membranes for radioligand binding experiments, cells were rinsed twice with phosphate-buffered saline (138 mM NaCl, 4.1 mM KCl, 5.1 mM Na2PO4, 1.5 mM […], 11.1 mM glucose, pH 7.4). Cells were transferred from plates to polypropylene tubes (16×100 mm), centrifuged at 1,200×g for 5 min and were frozen at −80° C. until assay. Following centrifugation, pellets were resuspended by homogenization in buffer consisting of 50 mM Tris (pH 7.7 at 25° C.), 120 mM NaCl and 5 mM KCl and then centrifuged at 32,000×g for 10 min. Following centrifugation, supernatants were discarded and pellets were resuspended in buffer consisting of 50 mM Tris (pH 7.4 at 25° C.), 150 mM NaCl and 5 mM KCl. Membrane homogenates (200 μl/plate) were incubated with 1 nM [^3H]-citalopram (specific activity=85 Ci/mMol) and increasing concentrations of test compounds for 1 hr at 25° C. in a total volume of 250 μl. The assay buffer consisted of 50 mM Tris (pH 7.4 at 25° C.), 120 mM NaCl and 5 mM KCl (pH 7.4 with conc. HCl). Plates were incubated for 1 hr at 25° C., then filtered through 0.5% PEI treated Whatman GF/B filters using a Brandel cell harvester. Filters were washed three times with 3 mL of ice-cold tris wash buffer. Non-specific binding was defined with 10 μM fluoxetine. Amount of radioligand bound in the presence and absence of competitor was analyzed by plotting (−)log drug concentration versus the amount of radioligand specifically bound. The midpoint of the displacement curve (IC50, nM), signifies the potency. Ki values were calculated using the method of Cheng and Prusoff (1973).

T2 sequence (P31645 whole entry): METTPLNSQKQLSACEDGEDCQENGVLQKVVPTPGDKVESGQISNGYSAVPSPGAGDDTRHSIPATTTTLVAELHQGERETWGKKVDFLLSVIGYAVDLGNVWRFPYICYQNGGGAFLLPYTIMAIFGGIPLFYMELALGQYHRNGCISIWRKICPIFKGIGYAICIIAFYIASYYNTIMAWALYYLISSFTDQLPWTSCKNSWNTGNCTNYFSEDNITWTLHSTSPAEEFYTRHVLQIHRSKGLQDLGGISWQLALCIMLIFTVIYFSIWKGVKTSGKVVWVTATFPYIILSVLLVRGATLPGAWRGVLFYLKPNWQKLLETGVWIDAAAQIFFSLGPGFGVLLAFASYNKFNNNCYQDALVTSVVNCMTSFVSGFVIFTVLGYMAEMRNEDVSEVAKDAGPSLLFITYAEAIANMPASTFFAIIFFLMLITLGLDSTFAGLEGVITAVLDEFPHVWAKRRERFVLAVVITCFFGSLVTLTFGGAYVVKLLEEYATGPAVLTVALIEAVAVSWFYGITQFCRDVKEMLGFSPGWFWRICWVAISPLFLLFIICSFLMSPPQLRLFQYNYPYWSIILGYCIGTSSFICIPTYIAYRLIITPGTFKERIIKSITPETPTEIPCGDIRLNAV
T1 sequence (P23975 whole entry): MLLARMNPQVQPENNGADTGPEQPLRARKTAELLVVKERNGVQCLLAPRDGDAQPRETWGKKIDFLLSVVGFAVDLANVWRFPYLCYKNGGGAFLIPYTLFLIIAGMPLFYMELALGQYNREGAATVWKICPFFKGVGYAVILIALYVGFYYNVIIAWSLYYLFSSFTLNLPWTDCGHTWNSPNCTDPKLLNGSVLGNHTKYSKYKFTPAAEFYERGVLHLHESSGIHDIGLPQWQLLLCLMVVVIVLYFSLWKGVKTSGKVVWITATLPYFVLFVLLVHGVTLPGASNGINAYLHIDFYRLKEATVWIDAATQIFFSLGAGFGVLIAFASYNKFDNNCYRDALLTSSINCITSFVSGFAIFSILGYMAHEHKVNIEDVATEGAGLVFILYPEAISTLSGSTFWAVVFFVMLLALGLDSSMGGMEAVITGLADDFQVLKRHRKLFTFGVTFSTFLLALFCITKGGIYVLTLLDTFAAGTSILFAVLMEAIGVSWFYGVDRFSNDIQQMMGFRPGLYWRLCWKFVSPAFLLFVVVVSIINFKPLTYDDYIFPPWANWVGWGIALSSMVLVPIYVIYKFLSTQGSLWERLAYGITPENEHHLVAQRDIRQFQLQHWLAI

| Compound | Ki [1] [µM] | Ki [2] [µM] |
| --- | --- | --- |
| CN(C)[C@@H]1CC[C@@H](c2c[nH]c3ccc(F)cc23)C1 [Compound 54, (1R,3R)-3-(5-fluoro-1H-indol-3-yl)-cyclopentyl-dimethylamine] | > 1 | 0.001 to 0.01 |
| CN(C)[C@H]1CC[C@@H](c2c[nH]c3ccc(F)cc23)C1 [Compound 55, (1S,3R)-3-(5-fluoro-1H-indol-3-yl)-cyclopentyl-dimethylamine] | > 1 | 0.001 to 0.01 |
| CCn1cc([C@H]2CC[C@@H](N(C)C)C2)c2cc(C#N)ccc21 [Compound 56, (1S,3R)-3-(3-Dimethylamino-cyclopentyl)-1-ethyl-1H-indole-5-carbonitrile] | > 1 | < 0.001 |
| CCn1cc([C@H]2CC[C@H](N(C)C)C2)c2cc(C#N)ccc21 [Compound 57, (1S,3S)-3-(3-Dimethylamino-cyclopentyl)-1-ethyl-1H-indole-5-carbonitrile] | > 1 | 0.001 to 0.01 |

Results, then the compound that gave them:

| Ki [1] [µM] | Ki [2] [µM] | Compound |
| --- | --- | --- |
| > 1 | < 0.001 | CCn1cc([C@@H]2CC[C@H](N(C)C)C2)c2cc(C#N)ccc21 [Compound 58, (1R,3S)-3-(3-Dimethylamino-cyclopentyl)-1-ethyl-1H-indole-5-carbonitrile] |
| > 1 | 0.001 to 0.01 | CCn1cc([C@@H]2CC[C@@H](N(C)C)C2)c2cc(C#N)ccc21 [Compound 59, (1R,3R)-3-(3-Dimethylamino-cyclopentyl)-1-ethyl-1H-indole-5-carbonitrile] |
